Assay results as given in US9951014B2, “Mammalian and bacterial nitric oxide synthase inhibitors” (Northwestern University, priority 2014, dated 2018).
Where two headings read alike, the source gives them in different places.

Experiments:
rat nNOS = rat nNOS (Rattus norvegicus (Rat), UniProt P29476); test: Oxyhemoglobin NO capture assay with purified NOS; format: biochemical
Description: (§1) The oxyhemoglobin NO assays were performed with purified NOSs using a Biotek Gen5™ microplate reader as previously reported. […] For iNOS, calmodulin and CaCl2 were omitted because iNOS is calcium independent. […] The calculated standard deviations of the assays were less than 10% with all NOSs. […] The selectivity of antagonism of nNOS was determined by calculating the ratios of the Ki values with iNOS or eNOS to those with rat nNOS.

human nNOS = human nNOS (Homo sapiens (Human), UniProt P29475); test: Oxyhemoglobin NO capture assay with purified NOS; format: biochemical; conditions: Table 9; read-out: Ki H nNOS
Description: as §1

murine iNOS = murine iNOS (Mus musculus (Mouse), UniProt P29477); test: Oxyhemoglobin NO capture assay with purified NOS; format: biochemical; conditions: for i/n selectivity: ratio Ki iNOS / Ki rat nNOS
Description: as §1

bovine eNOS = bovine eNOS (Bos taurus (Bovine), UniProt P29473); test: Oxyhemoglobin NO capture assay with purified NOS; format: biochemical; conditions: for e/n selectivity: ratio Ki eNOS / Ki rat nNOS
Description: as §1

bsNOS [1] = target: T1, bsNOS (Bacillus subtilis (strain 168), UniProt O34453); test: Imidazole displacement, spectral binding constant KS
T1 sequence (O34453 whole entry): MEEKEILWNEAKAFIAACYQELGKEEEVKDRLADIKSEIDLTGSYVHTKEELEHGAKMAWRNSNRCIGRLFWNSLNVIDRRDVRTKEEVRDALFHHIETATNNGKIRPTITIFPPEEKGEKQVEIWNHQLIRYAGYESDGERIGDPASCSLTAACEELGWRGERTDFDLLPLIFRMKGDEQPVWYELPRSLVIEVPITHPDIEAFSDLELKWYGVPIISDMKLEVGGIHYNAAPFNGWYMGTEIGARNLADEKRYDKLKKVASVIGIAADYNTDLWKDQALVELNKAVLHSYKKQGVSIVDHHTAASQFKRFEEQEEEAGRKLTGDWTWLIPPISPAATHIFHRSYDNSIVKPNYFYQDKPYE

bsNOS [2] = target: T1, bsNOS; conditions: cited from earlier work
eNOS = eNOS (Bos taurus (Bovine), UniProt P29473); conditions: literature data (footnotes a, c); read-out: KS eNOS; cited from earlier work
nNOS = nNOS (Rattus norvegicus (Rat), UniProt P29476); conditions: literature data (footnote b); read-out: KS nNOS; cited from earlier work
[3] = tested on: S. aureus UAMS1182 (MRSA); test: Effect of H2O2 and NOS inhibitors on S. aureus viability (CFU); format: cell-based, Staphylococcus aureus; conditions: for effect of co-treatment with H2O2 on killing of S. aureus: 200 μM inhibitor + 5 mM H2O2; for S. aureus survival, inhibitor alone: 200 μM inhibitor, WT and Δnos strains
B. subtilis = test: Effect of oxidative/antimicrobial stress and NOS inhibitors on B. subtilis survival (CFU); format: cell-based, Bacillus subtilis
[4] = WT − KS, wild-type bsNOS, Table 8
[5] = wt B. subtilis, L-NNA, 1 at 500 μM, 2 at 250 μM

Row | Compound | Ki (rat nNOS; Table 9, read-out: Ki Rat nNOS) | Ki (human nNOS) | Ki (murine iNOS; Table 9, read-out: Ki iNOS) | i/n selectivity (murine iNOS; Table 9) | Ki (bovine eNOS; Table 9, read-out: Ki eNOS) | e/n selectivity (bovine eNOS; Table 9) | further results
1 | CNCCN(C)c1cc(CCc2cc(C)cc(N)n2)cc(C(F)(F)F)c1 [Compound 19a, N^1-(3-(2-(6-Amino-4-methylpyridin-2-yl)ethyl)-5-(trifluoromethyl)phenyl)-N^1,N^2-dimethylethane-1,2-diamine] | 67 ± 3.3 nM | 189 ± 16 nM | 8130 nM | 122 | 15900 nM | 238 | –
2 | N=C(N)NCCC[C@H](N)C(=O)O [L-Arg, L-arginine] | – | – | – | – | – | – | Kd (bsNOS [1]; KS bsNOS, imidazole displacement, Tables 1 and 4): 760 nM; Kd (bsNOS [2]; read-out: WT − KS, wild-type bsNOS, referenced value (25)): 4800 nM; Kd (eNOS): 1000 nM; Kd (nNOS): 720 nM
3 | Cc1cc(N)nc(CCc2cccc(NCCN(C)C)c2)c1 [Compound 10b, N^1-(3-(2-(6-Amino-4-methylpyridin-2-yl)ethyl)phenyl)-N^2,N^2-dimethylethane-1,2-diamine] | 190 ± 12 nM | 111 ± 9 nM | 5430 nM | 29 | 23700 nM | 125 | –
4 | Cc1cc(N)nc(-c2ccc(CNCCc3cccc(F)c3)cc2)c1 [Compound 27, 6-(4-(((3-Fluorophenethyl)amino)methyl)phenyl)-4-methylpyridin-2-amine] | – | – | – | – | – | – | Kd (bsNOS [1]; KS (bsNOS), Table 5): 8900 ± 2000 nM; Kd (bsNOS [1]; [4]): 8800 ± 2000 nM; Ki (rat nNOS): 525 nM; Ki (murine iNOS): 6440 nM; Ki (bovine eNOS): 2870 nM; effect of co-treatment with H2O2 on killing of S. aureus [3]: significantly increases the H2O2-mediated killing; S. aureus survival, inhibitor alone [3]: reduced bacterial survival over time
5 | NC(=NCCC[C@H](N)C(=O)O)NO [NOHA, N-omega-hydroxy-L-arginine, reference compound] | – | – | – | – | – | – | fold difference in KS binding to bsNOS in presence vs absence of H4B (bsNOS [1]; 50 μM H4B): 1.2 fold; Kd (bsNOS [1]; presence of 50 μM H4B, read-out: KS bsNOS (+H4B)): 1900 ± 100 nM; Kd (bsNOS [2]; absence of H4B, referenced values (8), (9), read-out: KS bsNOS (−H4B)): 3200 nM
6 | Cc1cc(N)nc(CCc2cccc(N(C)CCN)c2)c1 [Compound 10c, N^1-(3-(2-(6-Amino-4-methylpyridin-2-yl)ethyl)phenyl)-N^1-methylethane-1,2-diamine] | 62 ± 4.1 nM | 56 ± 2 nM | 2900 nM | 47 | 10700 nM | 172 | –
7 | N=C(NCCC[C@H](N)C(=O)O)N[N+](=O)[O-] [L-NNA, N^ω-nitro-L-arginine, reference compound] | – | – | – | – | – | – | effect on bacterial % survival in the presence of ACR (B. subtilis; [5]): bacterial % survival decreased; effect on bacterial % survival in the presence of H2O2 (B. subtilis; [5]): trivial effects on bacterial survival
8 | Cc1cc(N)nc(CCc2cccc(N(C)CCCN)c2)c1 [Compound 10d, N^1-(3-(2-(6-Amino-4-methylpyridin-2-yl)ethyl)phenyl)-N^1-methylpropane-1,3-diamine] | 430 ± 22 nM | 109 ± 3 nM | 4640 nM | 11 | 10700 nM | 25 | –
9 | CNCCN(C)c1cccc(CCc2cc(C)cc(N)n2)c1 [Compound 10a, N^1-(3-(2-(6-Amino-4-methylpyridin-2-yl)ethyl)phenyl)-N^1,N^2-dimethylethane-1,2-diamine] | 130 ± 10 nM | 98 ± 5 nM | 5340 nM | 41 | 20200 nM | 156 | –
10 | acriflavine | – | – | – | – | – | – | bacterial growth, % of control (B. subtilis; B. subtilis, agent alone (800 μM ACR or 500 μM NOS inhibitor)): 23 % of control
11 | CNCCN(C)c1cc(F)cc(CCc2cc(C)cc(N)n2)c1 [Compound 19b, N^1-(3-(2-(6-Amino-4-methylpyridin-2-yl)ethyl)-5-fluorophenyl)-N^1,N^2-dimethylethane-1,2-diamine] | 34 ± 1.2 nM | 105 ± 8.1 nM | 5560 nM | – | 30200 nM | – | –
12 | CNCCN(C)c1cncc(CCc2cc(C)cc(N)n2)c1 [Compound 14b, N^1-(5-(2-(6-Amino-4-methylpyridin-2-yl)ethyl)pyridin-3-yl)-N^1,N^2-dimethylethane-1,2-diamine] | – | 59 ± 3.2 nM | – | – | 12900 nM | – | –
13 | Nc1ccc2ccc(CCNCCCc3cccc(F)c3)cc2n1 [Compound 19] | – | – | – | – | – | – | Kd (bsNOS [1]; KS (bsNOS), Table 5): 3600 ± 800 nM; Kd (bsNOS [1]; [4]): 3600 ± 800 nM; effect of co-treatment with H2O2 on killing of S. aureus [3]: significantly increases the H2O2-mediated killing; S. aureus survival, inhibitor alone [3]: reduced bacterial survival over time
